In patent US12521393B2, “Cytotoxicity targeting chimeras for CCR2-expressing cells” (GLAXOSMITHKLINE INTELLECTUAL PROPERTY DEVELOPMENT LIMITED, priority 2021, dated 2026):

How the values were obtained:
[1] = target: human alpha1 nicotinic acetylcholine (nACh) receptor (Homo sapiens, UniProt P02708); experiment: Nicotinic acetylcholine receptor antagonism assay, IONFlux automated patch clamp (Example 203); assay type: cell-based; conditions: for IC50: antagonism of ACh-stimulated human alpha1 nAChR current, patch clamp; for Emax at 10 µM: maximum percentage antagonism at maximum concentration tested 10 μM; for Emax at 10 µM / Emax at 100 µM: read-out: Maximum Response; for Emax at 100 µM: maximum percentage antagonism at maximum concentration tested 100 μM
human alpha1 nicotinic acetylcholine (nACh) receptor, sequence (P02708 21-457): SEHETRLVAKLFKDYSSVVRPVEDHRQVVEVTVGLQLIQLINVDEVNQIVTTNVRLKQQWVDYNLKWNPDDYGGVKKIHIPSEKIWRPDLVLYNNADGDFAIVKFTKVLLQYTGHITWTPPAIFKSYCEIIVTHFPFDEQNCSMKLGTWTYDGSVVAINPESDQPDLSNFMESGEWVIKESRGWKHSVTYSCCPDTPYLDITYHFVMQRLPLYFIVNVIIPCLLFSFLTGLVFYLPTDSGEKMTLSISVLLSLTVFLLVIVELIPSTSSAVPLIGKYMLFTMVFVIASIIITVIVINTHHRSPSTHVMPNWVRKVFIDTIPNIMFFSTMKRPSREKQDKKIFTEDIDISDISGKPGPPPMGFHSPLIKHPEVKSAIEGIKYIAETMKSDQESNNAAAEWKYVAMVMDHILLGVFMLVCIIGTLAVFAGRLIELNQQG
human alpha1 nicotinic acetylcholine (nACh) receptor, sequence (P11230 24-501 partner): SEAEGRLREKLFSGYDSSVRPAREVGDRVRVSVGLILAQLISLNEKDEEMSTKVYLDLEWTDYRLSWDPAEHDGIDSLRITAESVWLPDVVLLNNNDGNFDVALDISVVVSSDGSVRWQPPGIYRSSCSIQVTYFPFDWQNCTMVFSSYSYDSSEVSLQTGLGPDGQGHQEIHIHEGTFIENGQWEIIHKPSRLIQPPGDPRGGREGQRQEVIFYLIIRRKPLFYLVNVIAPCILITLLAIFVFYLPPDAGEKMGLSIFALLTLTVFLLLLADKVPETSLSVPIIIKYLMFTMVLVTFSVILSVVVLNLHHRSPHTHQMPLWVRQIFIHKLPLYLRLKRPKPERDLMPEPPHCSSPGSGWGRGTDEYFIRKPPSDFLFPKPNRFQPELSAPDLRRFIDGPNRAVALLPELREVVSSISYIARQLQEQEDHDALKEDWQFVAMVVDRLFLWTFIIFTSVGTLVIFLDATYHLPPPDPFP
human alpha1 nicotinic acetylcholine (nACh) receptor, sequence (Q07001 22-517 partner): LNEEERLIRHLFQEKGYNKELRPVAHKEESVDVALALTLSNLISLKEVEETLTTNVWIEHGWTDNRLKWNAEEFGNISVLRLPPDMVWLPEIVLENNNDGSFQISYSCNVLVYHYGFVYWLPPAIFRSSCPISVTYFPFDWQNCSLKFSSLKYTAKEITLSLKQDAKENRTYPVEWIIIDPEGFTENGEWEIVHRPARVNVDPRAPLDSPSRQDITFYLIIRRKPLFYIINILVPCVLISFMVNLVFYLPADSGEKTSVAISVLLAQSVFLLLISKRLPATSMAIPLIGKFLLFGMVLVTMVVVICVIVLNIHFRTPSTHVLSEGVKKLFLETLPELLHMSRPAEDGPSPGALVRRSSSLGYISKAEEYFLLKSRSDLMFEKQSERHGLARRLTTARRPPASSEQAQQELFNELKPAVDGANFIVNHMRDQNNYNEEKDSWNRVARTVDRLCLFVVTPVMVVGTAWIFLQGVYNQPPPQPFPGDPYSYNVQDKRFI
Procedure, shortened: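 Cells expressing human α1 nAChR were incubated with a compound dose response (top 10 μM or 100 μM), then stimulated with ACh (10 mM), and peak current was read by automated patch clamp. % inhibition was taken against ACh-alone control, corrected for vehicle and run-down, and fit non-linearly for IC50; runs were averaged.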

[2] = Blood drug concentration analysis by LC-MS/MS after IV dosing with anti-cotinine antibody (Example 201); assay type: in vivo; conditions: C57 background, human CCR2 knock-in, mouse; hCCR2 knock-in mice, IV 0.1 mpk compound + 10 mpk anti-cotinine antibody, whole blood, 48 hours post-dose; read-out: Exposure of Compound of Formula (I) 48 hours post-dose
Procedure: After bleeding, each mouse was sacrificed by cervical dislocation. […] Flow Cytometry Analysis:
Samples were analyzed on Q-Trap. […] The total run time was 2 minutes.

[3] = target: anti-cotinine antibody (SEQ ID NO: 11/12, rabbit variable region with human IgG1 Fc DE mutation); experiment: SPR binding of anti-cotinine antibody to ARM compounds, Biacore T200, 37° C. (Example 202); conditions: SPR Biacore T200, 37° C., pH 7.4, antibody SEQ ID NO: 11/12 captured on protein A; Kd in molar
Procedure, shortened: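 Run at 37 °C in 10 mM HEPES pH 7.4, 150 mM NaCl, 0.005% P20, 1% DMSO, with compounds titrated from 200 nM (five 3-fold steps) over protein A–captured antibody. A 1:1 kinetic model on double-referenced data gave rate constants, Kd as koff/kon and residence time 1/koff; results as pKd, run-averaged.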

[4] = target: T1, CHOK1 cells engineered to overexpress human CCR2 (Homo sapiens, UniProt P41597); experiment: Antibody dependent cellular cytotoxicity (ADCC) reporter assay (Example 199); assay type: cell-based; conditions: with anti-cotinine antibody (SEQ ID NO: 11/12), Jurkat FcγRIIIa NFAT-luciferase reporter cells, 12-18 hours, EC50 in molar, average or individual runs; for EC50: read-out: ADCC Reporter Assay pEC50 (converted)
T1 construct: expressed in transfected cells; host or cells: CHOK1
Procedure: An antibody dependent cellular cytoxocity reporter assay was conducted using the following four assay components: (i) ARM compound of Formula (I) targeting CCR2 (concentrations ranging from […] to 10 μM) (ii) anti-cotinine antibody having a heavy chain sequence of SEQ ID NO: 11 and a light chain sequence of SEQ ID NO: 12 (rabbit variable region with human IgG1 Fc domain containing a DE mutation (S239D/1332E)) (concentrations ranging from 0.01 μg/mL to 200 μg/mL); (iii) target cells: CHOK1 cells engineered to overexpress either human CCR2 (typically 1000-20,000 cells per well) and (iv) reporter cells: Jurkat cells engineered to express FcγRIIIa with the reporter gene luciferase under the control of the NFAT promoter (typically 3000-75,000 cells per well). Reagents were combined in a final volume of 20 μL in a 384-well tissue culture treated plate. All four assay components were incubated together for about 12-18 hours. Thereafter, BioGlo Detection reagent (Promega) was added to the wells to lyse the cells and provide a substrate for the luciferase reporter protein. Luminescence signal was measured on a microplate reader and signal: background was calculated by dividing the signal of a test well by the signal obtained when no heterobivalent compound of Formula (I) was added. EC50 calculations were done using Graphpad Prism Software, specifically a nonlinear regression curve fit (Y=Bottom+(Top−Bottom)/(1+10A((LogEC50−X)*HillSlope))).
ARMs compounds of Formula (I) of the invention were tested for ADCC activity in the above assay in or more experimental runs and the results are shown in Table 3 below. Potency of the compounds of Formula (I) of the invention is reported as a pEC50 value. The pEC50 value is the negative log of the EC50 value, wherein the EC50 value is the half maximal effective concentration measured in molar (M). For compounds tested in more than one experimental run, the pEC50 value is reported as an average.

| Compound | IC50 [1] | Emax at 10 µM [1] | concentration at 48 h [2] | pKd of Antibody for ARM Compound of Formula (I) [3] | EC50 [4] | ADCC Reporter Assay pEC50 [4] | Emax at 100 µM [1] |
| --- | --- | --- | --- | --- | --- | --- | --- |
| CN1C(=O)C[C@H](C(=O)NCCOCCOCCOCCOCCOCCC(=O)N[C@@H]2C[C@H](NC(C)(C)C)CC[C@@H]2N2CC[C@H](Nc3ncnc4ccc(C(F)(F)F)cc34)C2=O)[C@H]1c1cccnc1 [Example 37, (2S,3S)-N-(18-(((1R,2S,5R)-5-(tert-Butylamino)-2-((S)-2-oxo-3-((6-(trifluoromethyl)quinazolin-4-yl)amino)pyrrolidin-1-yl)cyclohexyl)amino)-18-oxo-3,6,9,12,15-pentaoxaoctadecyl)-1-methyl-5-oxo-2-(pyridin-3-yl)pyrrolidine-3-carboxamide] | ≥ 10 µM | 7.3% | 48.7 ng/mL | 9.7475 | 0.0126 µM |  |  |
| CN1C(=O)C[C@H](C(=O)NCCOCCOCCOCCOCCOCCOCCC(=O)N[C@@H]2C[C@H](NC(C)(C)C)CC[C@@H]2N2CC[C@H](Nc3ncnc4ccc(C(F)(F)F)cc34)C2=O)[C@H]1c1cccnc1 [Example 38, (2S,3S)-N-(21-(((1R,2S,5R)-5-(tert-Butylamino)-2-((S)-2-oxo-3-((6-(trifluoromethyl)quinazolin-4-yl)amino)pyrrolidin-1-yl)cyclohexyl)amino)-21-oxo-3,6,9,12,15,18-hexaoxahenicosyl)-1-methyl-5-oxo-2-(pyridin-3-yl)pyrrolidine-3-carboxamide] | ≥ 10 µM | -2.2% | 47.6 ng/mL | 9.611 | 0.00251 µM |  |  |
| CC(C)N(C)[C@@H]1CC[C@H](N2CC[C@H](Nc3ncnc4ccc(C(F)(F)F)cc34)C2=O)[C@H](NC(=O)CCOCCOCCOCCOCCOCCNC(=O)[C@H]2CC(=O)N(C)[C@@H]2c2cccnc2)C1 [Example 40, (2S,3S)-N-(18-(((1R,2S,5R)-5-(Isopropyl(methyl)amino)-2-((S)-2-oxo-3-((6-(trifluoromethyl)quinazolin-4-yl)amino)pyrrolidin-1-yl)cyclohexyl)amino)-18-oxo-3,6,9,12,15-pentaoxaoctadecyl)-1-methyl-5-oxo-2-(pyridin-3-yl)pyrrolidine-3-carboxamide] | ≥ 10 µM | 24.7% |  | 9.4525 | 0.00631 µM |  |  |
| CC(C)N(C)[C@@H]1CC[C@H](N2CC[C@H](Nc3ncnc4ccc(C(F)(F)F)cc34)C2=O)[C@H](NC(=O)CCOCCOCCOCCOCCOCCOCCNC(=O)[C@H]2CC(=O)N(C)[C@@H]2c2cccnc2)C1 [Example 41, (2S,3S)-N-(21-(((1R,2S,5R)-5-(isopropyl(methyl)amino)-2-((S)-2-oxo-3-((6-(trifluoromethyl)quinazolin-4-yl)amino)pyrrolidin-1-yl)cyclohexyl)amino)-21-oxo-3,6,9,12,15,18-hexaoxahenicosyl)-1-methyl-5-oxo-2-(pyridin-3-yl)pyrrolidine-3-carboxamide] | ≥ 10 µM | 20.1% |  | 9.3615 | 0.002 µM |  |  |
| CC(C)N(C)[C@@H]1CC[C@H](N2CC[C@H](Nc3ncnc4ccc(C(F)(F)F)cc34)C2=O)[C@H](NC2CCN(C(=O)CCOCCOCCOCCOCCNC(=O)[C@H]3CC(=O)N(C)[C@@H]3c3cccnc3)CC2)C1 [Example 69, (2S,3S)-N-(15-(4-(((1R,2S,5R)-5-(Isopropyl(methyl)amino)-2-((S)-2-oxo-3-((6-(trifluoromethyl)quinazolin-4-yl)amino)pyrrolidin-1-yl)cyclohexyl)amino)piperidin-1-yl)-15-oxo-3,6,9,12-tetraoxapentadecyl)-1-methyl-5-oxo-2-(pyridin-3-yl)pyrrolidine-3-carboxamide] |  |  | 39.9 ng/mL | 9.321 | 0.000316 µM |  |  |
| CC(C)N(C)[C@@H]1CC[C@H](N2CC[C@H](Nc3ncnc4ccc(C(F)(F)F)cc34)C2=O)[C@H](NC(=O)[C@H]2CC[C@@H](NC(=O)CCCOCCCCOCCNC(=O)[C@H]3CC(=O)N(C)[C@@H]3c3cccnc3)CC2)C1 [Example 122, (2S,3S)-N-(2-(4-(4-(((1S,4s)-4-(((1R,2S,5R)-5-(Isopropyl(methyl)amino)-2-((S)-2-oxo-3-((6-(trifluoromethyl)quinazolin-4-yl)amino)pyrrolidin-1-yl)cyclohexyl)carbamoyl)cyclohexyl)amino)-4-oxobutoxy)butoxy)ethyl)-1-methyl-5-oxo-2-(pyridin-3-yl)pyrrolidine-3-carboxamide] | ≥ 10 µM | 23% |  | 9.146 |  | 9 |  |
| CC(C)N(C)[C@@H]1CC[C@H](N2CC[C@H](Nc3ncnc4ccc(C(F)(F)F)cc34)C2=O)[C@H](NC(=O)CCOCCC(=O)N[C@H]2C[C@@H](C(=O)NCCOCCNC(=O)[C@H]3CC(=O)N(C)[C@@H]3c3cccnc3)C2)C1 [Example 186, (2S,3S)-N-(2-(2-((1S,3R)-3-(3-(3-(((1R,2S,5R)-5-(Isopropyl(methyl)amino)-2-((S)-2-oxo-3-((6-(trifluoromethyl)quinazolin-4-yl)amino)pyrrolidin-1-yl)cyclohexyl)amino)-3-oxopropoxy)propanamido)cyclobutane-1-carboxamido)ethoxy)ethyl)-1-methyl-5-oxo-2-(pyridin-3-yl)pyrrolidine-3-carboxamide] | 31.8 µM |  |  | 9.1435 |  |  | 55.2% |
| CC(C)N(C)[C@@H]1CC[C@H](N2CC[C@H](Nc3ncnc4ccc(C(F)(F)F)cc34)C2=O)[C@H](NC(=O)CCOCCC(=O)N[C@H]2C[C@H](C(=O)NCCOCCNC(=O)[C@H]3CC(=O)N(C)[C@@H]3c3cccnc3)C2)C1 [Example 187] | 71.1 µM |  |  | 9.104 |  |  | 63.7% |
| CC(C)N(C)[C@@H]1CC[C@H](N2CC[C@H](Nc3ncnc4ccc(C(F)(F)F)cc34)C2=O)[C@H](NC(=O)CCCN2CCC3(CCN(CCCNC(=O)[C@H]4CC(=O)N(C)[C@@H]4c4cccnc4)CC3)CC2)C1 [Example 191, (2S,3S)-N-(3-(9-(4-(((1R,2S,5R)-5-(Isopropyl(methyl)amino)-2-((S)-2-oxo-3-((6-(trifluoromethyl)quinazolin-4-yl)amino)pyrrolidin-1-yl)cyclohexyl)amino)-4-oxobutyl)-3,9-diazaspiro[5.5]undecan-3-yl)propyl)-1-methyl-5-oxo-2-(pyridin-3-yl)pyrrolidine-3-carboxamide] | 2.95 µM | 74% |  | 9.68 |  |  |  |
| CC(C)N(C)[C@@H]1CC[C@H](N2CC[C@H](Nc3ncnc4ccc(C(F)(F)F)cc34)C2=O)[C@H](NC(=O)[C@H]2CC[C@H](C(=O)NCCCOCCCCOCCCNC(=O)[C@H]3CC(=O)N(C)[C@@H]3c3cccnc3)CC2)C1 [Example 194, (1r,4R)-N^1-((1R,2S,5R)-5-(Isopropyl(methyl)amino)-2-((S)-2-oxo-3-((6-(trifluoromethyl)quinazolin-4-yl)amino)pyrrolidin-1-yl)cyclohexyl)-N^4-(3-(4-(3-((2S,3S)-1-methyl-5-oxo-2-(pyridin-3-yl)pyrrolidine-3-carboxamido)propoxy)butoxy)propyl)cyclohexane-1,4-dicarboxamide] | ≥ 100 µM |  |  | 9.5415 |  |  | 44.9% |
